Laboratory results from patent US10689367B2, “Triazole pyridyl compounds as agonists of the APJ receptor” (AMGEN INC., priority 2016, dated 2020).

Molecular target: human APJ receptor (Homo sapiens (Human), UniProt P35414)
Assay: [35S]GTPγS binding assay on membranes from CHO cells stably expressing human APJ receptor
Type: biochemical
Conditions: membranes of CHO cells stably expressing human APJ receptor, read-out: Activity hAPJ SPA EC50 IP
Method in brief: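 Agonist EC50 values come from non-linear regression of mean data from several independent runs. Membranes of CHO cells stably expressing human APJ were incubated 90 min at room temperature with [35S]GTPγS in buffer with optimized GDP, MgCl2 and NaCl, then read on a microplate imager.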

Sequence of human APJ receptor (P35414 whole entry): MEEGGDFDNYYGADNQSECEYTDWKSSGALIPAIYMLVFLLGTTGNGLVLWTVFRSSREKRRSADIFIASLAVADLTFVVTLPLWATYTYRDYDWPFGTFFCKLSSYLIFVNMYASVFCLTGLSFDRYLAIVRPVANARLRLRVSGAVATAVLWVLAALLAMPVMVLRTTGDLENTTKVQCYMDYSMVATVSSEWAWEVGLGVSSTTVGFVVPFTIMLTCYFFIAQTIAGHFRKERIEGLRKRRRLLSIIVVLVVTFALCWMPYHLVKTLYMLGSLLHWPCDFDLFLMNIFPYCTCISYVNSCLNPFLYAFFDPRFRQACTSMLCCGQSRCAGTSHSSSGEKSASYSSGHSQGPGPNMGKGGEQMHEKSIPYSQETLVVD

## COc1cccc(-c2nnc(NS(=O)(=O)[C@@H](C)[C@H](OC)c3ncc(Cl)cn3)n2C[C@H]2CCC(C)(C)O2)n1 (single isomer, unassigned) [Example 290.0, (1R,2S)-1-(5-chloropyrimidin-2-yl)-N-(4-(((R)-5,5-dimethyltetrahydrofuran-2-yl)methyl)-5-(6-methoxypyridin-2-yl)-4H-1,2,4-triazol-3-yl)-1-methoxypropane-2-sulfonamide or (1R,2S)-1-(5-chloropyrimidin-2-yl)-N-(4-(((S)-5,5-dimethyltetrahydrofuran-2-yl)methyl)-5-(6-methoxypyridin-2-yl)-4H-1,2,4-triazol-3-yl)-1-methoxypropane-2-sulfonamide]
  EC50: 15 nM

## COc1cccc(-c2nnc(NS(=O)(=O)[C@@H](C)[C@H](OC)c3ncc(Cl)cn3)n2Cc2cc(C)no2)n1 [Example 189.0, (1R,2S)-1-(5-chloropyrimidin-2-yl)-1-methoxy-N-(5-(6-methoxypyridin-2-yl)-4-((3-methylisoxazol-5-yl)methyl)-4H-1,2,4-triazol-3-yl)propane-2-sulfonamide]
  EC50: 18 nM

## [2H]C1([2H])C(n2c(NS(=O)(=O)[C@@H](C)[C@@H](OC(C)C)c3ncc(C)cn3)nnc2-c2cccc(OC)n2)C1([2H])[2H] [Example 164.0, (1S,2S)—N-(4-(Cyclopropyl-2,2,3,3-d4)-5-(6-methoxypyridin-2-yl)-4H-1,2,4-triazol-3-yl)-1-isopropoxy-1-(5-methylpyrimidin-2-yl)propane-2-sulfonamide]
  EC50: 11 nM

## COc1cccc(-c2nnc(NS(=O)(=O)[C@@H](C)[C@H](OC)c3ncc(Cl)cn3)n2[C@@H](C)c2noc(C)n2)n1 (single isomer, unassigned) [Example 244.0, (1R,2S)-1-(5-chloro-2-pyrimidinyl)-1-methoxy-N-(5-(6-methoxy-2-pyridinyl)-4-((1R)-1-(5-methyl-1,2,4-oxadiazol-3-yl)ethyl)-4H-1,2,4-triazol-3-yl)-2-propanesulfonamide or (1R,2S)-1-(5-chloro-2-pyrimidinyl)-1-methoxy-N-(5-(6-methoxy-2-pyridinyl)-4-((1S)-1-(5-methyl-1,2,4-oxadiazol-3-yl)ethyl)-4H-1,2,4-triazol-3-yl)-2-propanesulfonamide]
  EC50: 8.2 nM

## COCC1(n2c(NS(=O)(=O)[C@@H](C)[C@@H](OC(C)C)c3ncc(C)cn3)nnc2-c2cccc(OC)n2)CC1 [Example 64.0]
  EC50: 0.16 nM

## COc1cccc(-c2nnc(NS(=O)(=O)[C@@H](C)[C@H](OC)c3ncc(Cl)cn3)n2[C@@H](C)c2ncc(C)o2)n1 (single isomer, unassigned) [Example 255.0, (1R,2S)-1-(5-chloro-2-pyrimidinyl)-1-methoxy-N-(5-(6-methoxy-2-pyridinyl)-4-((1S)-1-(5-methyl-1,3-oxazol-2-yl)ethyl)-4H-1,2,4-triazol-3-yl)-2-propanesulfonamide or (1R,2S)-1-(5-chloro-2-pyrimidinyl)-1-methoxy-N-(5-(6-methoxy-2-pyridinyl)-4-((1R)-1-(5-methyl-1,3-oxazol-2-yl)ethyl)-4H-1,2,4-triazol-3-yl)-2-propanesulfonamide]
  EC50: 7.5 nM

## COc1cccc(-c2nnc(NS(=O)(=O)[C@@H](C)[C@H](C)c3ncc(Cl)cn3)n2Cc2cc(C)on2)n1 [Example 272.0, (2S,3R)-3-(5-chloropyrimidin-2-yl)-N-(5-(6-methoxypyridin-2-yl)-4-((5-methylisoxazol-3-yl)methyl)-4H-1,2,4-triazol-3-yl)butane-2-sulfonamide]
  EC50: 12 nM

## COc1cccc(-c2nnc(NS(=O)(=O)[C@@H](C)[C@H](OC)c3ncc(Cl)cn3)n2C2CC3(COC3)C2)n1 [Example 7.0, (1R,2S)-1-(5-chloro-2-pyrimidinyl)-1-methoxy-N-(5-(6-methoxy-2-pyridinyl)-4-(2-oxaspiro[3.3]hept-6-yl)-4H-1,2,4-triazol-3-yl)-2-propanesulfonamide]
  EC50: 240 nM

## COc1cccc(-c2nnc(NS(=O)(=O)[C@@H](C)[C@H](OC)c3ncc(Cl)cn3)n2[C@@H]2CC23CC3)n1 (single isomer, unassigned) [Example 90.0]
  EC50: 6.2 nM

## COCC(COC)n1c(NS(=O)(=O)[C@@H](C)[C@H](OC)c2ncc(Cl)cn2)nnc1-c1cccc(OC)n1 [Example 6.0, (1R,2S)-1-(5-chloro-2-pyrimidinyl)-1-methoxy-N-(4-(2-methoxy-1-(methoxymethyl)ethyl)-5-(6-methoxy-2-pyridinyl)-4H-1,2,4-triazol-3-yl)-2-propanesulfonamide]
  EC50: 0.3 nM

## COc1cccc(-c2nnc(NS(=O)(=O)[C@@H](C)[C@H](OC)c3ncc(Cl)cn3)n2C2CCCC2)n1 [Example 183.0, (1R,2S)-1-(5-chloro-2-pyrimidinyl)-N-(4-cyclopentyl-5-(6-methoxy-2-pyridinyl)-4H-1,2,4-triazol-3-yl)-1-methoxy-2-propanesulfonamide]
  EC50: 4.8 nM

## COc1cccc(-c2nnc(NS(=O)(=O)[C@@H](C)[C@@H](OC(C)C)c3ncc(C)cn3)n2[C@@H](C)c2ncnn2C)n1 (single isomer, unassigned) [Example 253.0, (1S,2S)-N-(5-(6-methoxy-2-pyridinyl)-4-((1R)-1-(1-methyl-1H-1,2,4-triazol-5-yl)ethyl)-4H-1,2,4-triazol-3-yl)-1-(5-methyl-2-pyrimidinyl)-1-(2-propanyloxy)-2-propanesulfonamide or (1S,2S)-N-(5-(6-methoxy-2-pyridinyl)-4-((1S)-1-(1-methyl-1H-1,2,4-triazol-5-yl)ethyl)-4H-1,2,4-triazol-3-yl)-1-(5-methyl-2-pyrimidinyl)-1-(2-propanyloxy)-2-propanesulfonamide]
  EC50: 32 nM

## COc1cccc(-c2nnc(NS(=O)(=O)[C@@H](C)[C@H](OC)c3ncc(Cl)cn3)n2C[C@H]2CCCCO2)n1 (racemic) [Example 287.0, (1R,2S)-1-(5-chloropyrimidin-2-yl)-1-methoxy-N-(5-(6-methoxypyridin-2-yl)-4-(((R)-tetrahydro-2H-pyran-2-yl)methyl)-4H-1,2,4-triazol-3-yl)propane-2-sulfonamide or (1R,2S)-1-(5-chloropyrimidin-2-yl)-1-methoxy-N-(5-(6-methoxypyridin-2-yl)-4-(((S)-tetrahydro-2H-pyran-2-yl)methyl)-4H-1,2,4-triazol-3-yl)propane-2-sulfonamide]
  EC50: 5.9 nM

## COc1cccc(-c2nnc(NS(=O)(=O)[C@@H](C)[C@H](OC)c3ncc(Cl)cn3)n2C2C3(CC3)C23CC3)n1 [Example 163.0, (1R,2S)-1-(5-Chloropyrimidin-2-yl)-N-(4-(dispiro[2.0.24.13]heptan-7-yl)-5-(6-methoxypyridin-2-yl)-4H-1,2,4-triazol-3-yl)-1-methoxypropane-2-sulfonamide]
  EC50: 52 nM

## COc1cccc(-c2nnc(NS(=O)(=O)[C@@H](C)[C@@H](OC(C)C)c3ncc(C)cn3)n2[C@@H](C)c2noc(C)n2)n1 (single isomer, unassigned) [Example 259.0, (1S,2S)-N-(5-(6-methoxy-2-pyridinyl)-4-((1R)-1-(5-methyl-1,2,4-oxadiazol-3-yl)ethyl)-4H-1,2,4-triazol-3-yl)-1-(5-methyl-2-pyrimidinyl)-1-(2-propanyloxy)-2-propanesulfonamide or (1S,2S)-N-(5-(6-methoxy-2-pyridinyl)-4-((1S)-1-(5-methyl-1,2,4-oxadiazol-3-yl)ethyl)-4H-1,2,4-triazol-3-yl)-1-(5-methyl-2-pyrimidinyl)-1-(2-propanyloxy)-2-propanesulfonamide]
  EC50: 8.7 nM
